Experimental findings from ChEMBL document CHEMBL2216751, “PI3Kδ and PI3Kγ as targets for autoimmune and inflammatory diseases” (J Med Chem, 2012) are described below.

As a reminder, the Ki is the dissociation constant of the complex between target and ligand, obtained from inhibition or displacement. Read a high Ki as weaker binding. Usually clearance stands for the rate of elimination divided by the concentration. As a reminder, the bioavailability is dose-corrected exposure relative to a reference, in per cent. Low values mean poor availability, high ones good availability. What is called inhibition is the change of the read-out against control, counted positive when it falls. Higher therefore signals a strong effect.

The target of data set [1] is T1, Phosphatidylinositol 4,5-bisphosphate 3-kinase catalytic subunit delta isoform (Homo sapiens, UniProt O00329).
T1 sequence (O00329 whole entry): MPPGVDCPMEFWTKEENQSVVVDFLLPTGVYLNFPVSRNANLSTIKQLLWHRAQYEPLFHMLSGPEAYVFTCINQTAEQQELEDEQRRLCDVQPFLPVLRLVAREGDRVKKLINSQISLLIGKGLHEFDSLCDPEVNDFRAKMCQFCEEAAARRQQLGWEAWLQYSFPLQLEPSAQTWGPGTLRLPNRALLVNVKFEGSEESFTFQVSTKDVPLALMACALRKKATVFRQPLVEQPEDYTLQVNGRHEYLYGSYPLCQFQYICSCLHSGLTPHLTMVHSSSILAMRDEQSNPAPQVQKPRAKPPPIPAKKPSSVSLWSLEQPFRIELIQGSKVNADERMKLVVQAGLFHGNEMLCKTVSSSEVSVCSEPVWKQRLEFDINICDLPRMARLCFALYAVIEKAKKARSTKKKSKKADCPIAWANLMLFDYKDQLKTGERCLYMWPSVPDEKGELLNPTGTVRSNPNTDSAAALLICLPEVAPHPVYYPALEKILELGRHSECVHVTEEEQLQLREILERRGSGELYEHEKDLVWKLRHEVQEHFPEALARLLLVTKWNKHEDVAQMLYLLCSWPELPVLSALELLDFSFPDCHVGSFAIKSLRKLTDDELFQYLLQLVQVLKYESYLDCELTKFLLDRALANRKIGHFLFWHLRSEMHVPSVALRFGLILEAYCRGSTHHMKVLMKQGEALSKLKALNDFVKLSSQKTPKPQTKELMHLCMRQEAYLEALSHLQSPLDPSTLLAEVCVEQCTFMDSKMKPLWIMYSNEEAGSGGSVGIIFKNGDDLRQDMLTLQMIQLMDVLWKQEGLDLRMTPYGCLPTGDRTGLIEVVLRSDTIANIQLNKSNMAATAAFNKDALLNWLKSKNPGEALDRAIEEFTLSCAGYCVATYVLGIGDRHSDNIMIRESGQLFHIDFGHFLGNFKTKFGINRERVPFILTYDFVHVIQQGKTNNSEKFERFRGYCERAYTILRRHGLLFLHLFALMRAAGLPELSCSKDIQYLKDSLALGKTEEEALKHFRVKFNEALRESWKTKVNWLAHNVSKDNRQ

Data set [2] deals with Serine/threonine-protein kinase mTOR (Homo sapiens) (UniProt P42345). Kind of data set: Inhibition of mTOR.
The nature of data set [3]: Clearance in Han-Wistar rat. It is filed as ADME, organism-based. The settings on record: in vivo.
A short description of data set [4]: Oral bioavailability in Han-Wistar rat. Format: ADME, organism-based. The settings on record: in vivo.
Data set [5] has as its target T1, Phosphatidylinositol 4,5-bisphosphate 3-kinase catalytic subunit delta isoform. Kind of data set: Inhibition of PI3Kdelta in neutrophil assessed as inhibition of superoxide production by cell-based assay.
The target is the same in data set [6]. Kind of data set: Inhibition of PI3Kdelta-mediated AKT phosphorylation in human Ramos cells by ELISA. Format: cell-based. On the technique in general: ELISA stands for enzyme-linked immunosorbent assay.
The target in data set [7] is T2, Phosphatidylinositol 4,5-bisphosphate 3-kinase catalytic subunit gamma isoform (Homo sapiens, UniProt P48736). In words: Inhibition of PI3Kgamma-mediated Akt phosphorylation in T cells by flow cytometry. Format: cell-based, T-cell. On the technique in general: Flow cytometry measures light scatter and fluorescence of single cells or particles in a stream.
Target sequence in this assay (P48736 whole entry, canonical isoform): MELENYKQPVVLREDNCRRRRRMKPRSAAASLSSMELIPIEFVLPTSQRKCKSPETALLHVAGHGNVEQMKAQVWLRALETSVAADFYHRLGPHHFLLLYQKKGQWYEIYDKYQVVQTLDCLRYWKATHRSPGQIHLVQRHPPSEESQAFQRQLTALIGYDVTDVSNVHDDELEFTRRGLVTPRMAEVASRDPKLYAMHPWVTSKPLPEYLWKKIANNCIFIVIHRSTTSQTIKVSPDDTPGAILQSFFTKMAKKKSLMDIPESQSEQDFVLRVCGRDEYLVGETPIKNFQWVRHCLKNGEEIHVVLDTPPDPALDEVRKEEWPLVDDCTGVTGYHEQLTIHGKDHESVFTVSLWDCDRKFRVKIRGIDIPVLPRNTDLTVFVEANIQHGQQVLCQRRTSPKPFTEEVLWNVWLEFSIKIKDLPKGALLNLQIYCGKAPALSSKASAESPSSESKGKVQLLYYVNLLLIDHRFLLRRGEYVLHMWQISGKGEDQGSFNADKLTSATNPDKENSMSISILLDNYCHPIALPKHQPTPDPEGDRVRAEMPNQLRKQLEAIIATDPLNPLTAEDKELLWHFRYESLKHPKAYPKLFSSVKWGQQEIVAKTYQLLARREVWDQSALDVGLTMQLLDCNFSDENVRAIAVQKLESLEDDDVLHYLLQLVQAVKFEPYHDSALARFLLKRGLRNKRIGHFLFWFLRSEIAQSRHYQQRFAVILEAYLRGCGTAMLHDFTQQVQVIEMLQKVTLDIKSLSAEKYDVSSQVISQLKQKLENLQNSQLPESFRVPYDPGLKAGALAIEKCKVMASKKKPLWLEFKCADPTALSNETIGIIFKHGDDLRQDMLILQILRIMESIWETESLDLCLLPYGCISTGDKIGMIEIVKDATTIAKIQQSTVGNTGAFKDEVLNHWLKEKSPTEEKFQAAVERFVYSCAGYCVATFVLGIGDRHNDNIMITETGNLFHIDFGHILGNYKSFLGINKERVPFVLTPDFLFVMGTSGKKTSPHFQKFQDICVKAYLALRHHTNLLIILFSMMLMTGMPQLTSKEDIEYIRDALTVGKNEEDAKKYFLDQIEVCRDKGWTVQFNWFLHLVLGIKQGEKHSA
The target of data set [8] is Phosphatidylinositol 4,5-bisphosphate 3-kinase catalytic subunit beta isoform (Homo sapiens) (UniProt P42338). In words: Inhibition of PI3Kbeta at 1 uM.
Phosphatidylinositol 4,5-bisphosphate 3-kinase catalytic subunit beta isoform (Homo sapiens), sequence (P42338 whole entry, looked up, canonical isoform): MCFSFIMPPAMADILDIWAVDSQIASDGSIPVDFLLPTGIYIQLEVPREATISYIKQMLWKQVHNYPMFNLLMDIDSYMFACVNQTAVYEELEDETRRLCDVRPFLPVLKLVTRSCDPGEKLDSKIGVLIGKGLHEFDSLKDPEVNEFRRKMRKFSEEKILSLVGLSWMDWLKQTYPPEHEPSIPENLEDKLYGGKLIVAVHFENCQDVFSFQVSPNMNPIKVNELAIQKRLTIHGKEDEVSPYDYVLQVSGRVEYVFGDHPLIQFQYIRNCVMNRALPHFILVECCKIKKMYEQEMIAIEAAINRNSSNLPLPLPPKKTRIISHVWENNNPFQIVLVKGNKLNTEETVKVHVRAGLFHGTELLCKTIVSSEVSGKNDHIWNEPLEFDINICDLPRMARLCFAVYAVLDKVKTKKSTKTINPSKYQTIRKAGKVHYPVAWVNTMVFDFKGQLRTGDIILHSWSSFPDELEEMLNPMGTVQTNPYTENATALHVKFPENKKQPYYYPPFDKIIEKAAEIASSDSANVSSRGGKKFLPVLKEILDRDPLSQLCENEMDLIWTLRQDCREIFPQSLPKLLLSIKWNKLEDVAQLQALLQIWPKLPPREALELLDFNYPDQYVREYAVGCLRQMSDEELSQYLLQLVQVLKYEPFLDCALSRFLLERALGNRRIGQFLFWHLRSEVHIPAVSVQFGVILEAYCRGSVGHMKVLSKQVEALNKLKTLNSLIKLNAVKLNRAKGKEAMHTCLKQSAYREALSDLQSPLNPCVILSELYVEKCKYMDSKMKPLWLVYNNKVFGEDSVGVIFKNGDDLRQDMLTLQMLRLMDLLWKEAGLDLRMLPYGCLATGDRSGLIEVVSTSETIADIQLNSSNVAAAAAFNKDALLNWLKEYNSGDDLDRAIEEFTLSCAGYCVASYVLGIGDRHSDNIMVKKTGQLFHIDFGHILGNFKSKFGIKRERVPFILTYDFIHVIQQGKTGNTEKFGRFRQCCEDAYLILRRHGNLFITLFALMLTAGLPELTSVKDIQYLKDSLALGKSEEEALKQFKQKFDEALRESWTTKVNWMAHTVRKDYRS
In data set [9] the target is Phosphatidylinositol 4,5-bisphosphate 3-kinase catalytic subunit alpha isoform (Homo sapiens) (UniProt P42336). Kind of data set: Inhibition of PI3Kalpha at 1 uM.
Phosphatidylinositol 4,5-bisphosphate 3-kinase catalytic subunit alpha isoform (Homo sapiens), sequence (P42336 whole entry, canonical isoform): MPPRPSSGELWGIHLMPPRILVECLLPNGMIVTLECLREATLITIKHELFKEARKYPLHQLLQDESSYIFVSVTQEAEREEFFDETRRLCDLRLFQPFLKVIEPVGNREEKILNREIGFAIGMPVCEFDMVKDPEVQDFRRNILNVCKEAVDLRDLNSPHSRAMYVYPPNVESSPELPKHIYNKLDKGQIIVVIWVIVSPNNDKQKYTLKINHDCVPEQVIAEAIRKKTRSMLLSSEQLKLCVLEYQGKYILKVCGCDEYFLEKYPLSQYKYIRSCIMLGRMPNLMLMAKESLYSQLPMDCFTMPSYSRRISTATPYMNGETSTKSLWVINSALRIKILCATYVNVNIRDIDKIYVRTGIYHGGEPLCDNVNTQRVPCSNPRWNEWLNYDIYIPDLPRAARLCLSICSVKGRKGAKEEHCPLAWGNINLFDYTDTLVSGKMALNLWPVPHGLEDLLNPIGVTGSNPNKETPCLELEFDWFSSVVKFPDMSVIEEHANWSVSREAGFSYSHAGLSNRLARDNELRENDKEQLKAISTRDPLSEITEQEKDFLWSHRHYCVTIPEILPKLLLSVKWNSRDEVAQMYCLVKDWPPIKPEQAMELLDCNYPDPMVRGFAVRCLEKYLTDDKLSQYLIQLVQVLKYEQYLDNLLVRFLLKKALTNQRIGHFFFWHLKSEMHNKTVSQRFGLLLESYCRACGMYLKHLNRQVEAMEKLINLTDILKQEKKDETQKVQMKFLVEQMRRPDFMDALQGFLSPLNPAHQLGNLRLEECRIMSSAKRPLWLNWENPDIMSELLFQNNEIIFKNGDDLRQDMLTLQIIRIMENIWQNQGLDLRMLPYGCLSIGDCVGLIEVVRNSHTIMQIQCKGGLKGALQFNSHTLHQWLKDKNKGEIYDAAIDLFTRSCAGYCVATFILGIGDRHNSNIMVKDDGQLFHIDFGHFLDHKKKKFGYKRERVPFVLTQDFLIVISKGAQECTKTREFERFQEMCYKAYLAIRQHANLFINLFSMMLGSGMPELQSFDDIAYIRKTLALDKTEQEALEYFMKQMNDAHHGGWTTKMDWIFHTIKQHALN
Data set [10] has as its target T2, Phosphatidylinositol 4,5-bisphosphate 3-kinase catalytic subunit gamma isoform. Kind of data set: Inhibition of PI3Kgamma at 1 uM.
Target sequence in this assay (P48736 whole entry, looked up, canonical isoform): as the sequence (P48736 whole entry, canonical isoform) above
Data set [11] has as its target T3, Phosphatidylinositol 4,5-bisphosphate 3-kinase catalytic subunit delta isoform (Homo sapiens) (UniProt O00329).
T3 sequence (whole entry): T1 sequence (O00329 whole entry)
Kind of data set: Inhibition of PI3Kdelta-mediated Akt phosphorylation at 10 uM by cell-based assay.

The target in data set [12] is T1, Phosphatidylinositol 4,5-bisphosphate 3-kinase catalytic subunit delta isoform. Kind of data set: Inhibition of PI3Kdelta in human PBMC.
Data set [13] shares this target. Kind of data set: Inhibition of PI3Kdelta in human whole blood assessed as inhibition of CD69 production in B lymphocyte by immunoassay.
The subject of data set [14] is Homo sapiens. Kind of data set: Toxicity in healthy human administered bid up to 7 days. Format: organism-based. The settings on record: in vivo, 168 h.
For data set [15], the species on record is Homo sapiens. Kind of data set: Toxicity in healthy human. It is filed as organism-based. To be noted: in vivo.
The species named for data set [16] is Homo sapiens. Kind of data set: Antitumor activity in Non-Hodgkin Lymphoma patient assessed as clinical response rate at 50 to 350 mg, bid. It is filed as functional.

Bounds are passed on as bounds.

The compound `CC(=O)NCCNS(=O)(=O)c1ccc(-c2sc(NC(C)=O)nc2C)o1` registered a Ki in data set [1] of 100 nM. As for `Clc1ccc(-c2nc(N3CCOCC3)sc2-c2nnc[nH]2)c(Cl)c1`, the IC50 in data set [1] (read-out: IC50) is less than 100 nM. In the case of `CC(=O)Nc1nc2ccc(-c3nn(C4CCCC4)c4ncnc(N)c34)cc2s1`, the IC50 in [1] (read-out: IC50) is less than 50 nM. The compound further yielded an INH in data set [2] of less than 0.05 µM. As for `COc1ccc(-c2ccc3c(n2)N(C2=NC(=O)C(C)(C)S2)CCO3)cc1OC`, in data set [1] (read-out: IC50), the IC50 came out at 27 nM. As for `Cn1cc(-c2ccc3c(c2)N(C2=NC4CC(C)(C)NC(=O)C4S2)CCO3)cn1` (stereo not given), the clearance in data set [3] came out at 7 mL/min/kg. In data set [4], this compound displayed a bioavailability of 97%. Further, the IC50 in [5] was 111 nM. For `COc1cc2c(CC3CCCC(C)C3)c(C(=O)Nc3nn[nH]n3)sc2cc1C` (stereo not given), the IC50 in data set [1] (read-out: IC50) worked out at 3 nM. Regarding `O=C(CN1CCOCC1)Nc1cc(-c2cc(F)cc3[nH]ccc23)cc2[nH]ncc12`, in [1], the pIC50 entry is “>= 5”. Consider `C[C@@H](c1nc2ccsc2c(=O)n1-c1ccccc1)n1cnc2c(N)ncnc21`, for which the IC50 in data set [1] (read-out: IC50) was 40 nM. On to `Cc1cccn2c(C(C)Nc3ncnc4[nH]cnc34)c(-c3cc(F)cc(F)c3)nc12` (stereo not given), for which the results for the IC50 in data set [1] (read-out: IC50) and in data set [6] were less than 200 nM and less than 500 nM, respectively.

As to `CN1CCOC(C(=O)Nc2cc(-c3cccc4[nH]ccc34)cc3[nH]ncc23)C1` (stereo not given), the pIC50 entry in data set [1] is given as “>= 5”. The compound further showed an IC50 in [7] not above 1000 nM. Turning to `C[C@H](Nc1ncnc2[nH]cnc12)c1nc2ccsc2c(=O)n1-c1ccccc1`, in [1] (read-out: IC50), the IC50 is 6 nM. Take `Cc1cccc2cc(Cn3cnc4c(N)ncnc43)c(N(C)CC3CCCN3C)nc12` (stereo not given): in data set [1] (read-out: IC50), the IC50 is less than 50 nM.

As for `CC(c1oc2ccccc2c(=O)c1-c1cccc(F)c1)n1cnc2c(N)ncnc21` (stereo not given), in data set [1] (read-out: IC50), the IC50 was less than 250 nM. Besides, the inhibition in data set [8], in data set [9] and in data set [10] was less than 25% throughout. Turning to `Cc1oc2ncn(CC(C)C)c(=O)c2c1C(=O)NCc1ccccc1`, the IC50 in data set [1] (read-out: IC50) is 2100 nM. `CC(C)(Oc1cccc2[nH]c(-c3nccc(-c4cncc(S(N)(=O)=O)c4)n3)cc12)C(=O)O` registered an inhibition in [11] of more than 95%. In turn, `CCNC(=O)Nc1nc2ccc(-c3cncc(C(F)(F)F)c3)cc2s1` had a Ki in data set [1] of 10 nM. Turning to `COc1ccccc1S(=O)(=O)Nc1cc(-c2cc(NC(=O)c3csc(CN4C[C@@H](C)O[C@@H](C)C4)n3)c3cn[nH]c3c2)cnc1OC`, the pIC50 result in data set [1] is on record as “>= 5”. The same compound had an IC50 in data set [12] not above 10000 nM. In data set [1], `CN(C)C1CCN(Cc2cc3nc(-c4cccc5[nH]ccc45)nc(N4CCOCC4)c3s2)CC1` displayed a Ki of 4.9 nM. In addition, the IC50 in data set [13] amounted to 17 nM. As for `CN(C)CCCOc1cccc2c1nc(C(F)F)n2-c1nc(OC2CCN(C(=O)CCl)CC2)nc(N2CCOCC2)n1`, in data set [1] (read-out: IC50), the IC50 is more than 100 nM. With `Cc1nc(NC(=O)NCCC(=O)OC(C)(C)C)sc1-c1ccc(S(C)(=O)=O)c(F)c1`, in data set [1] (read-out: IC50), the IC50 is 16 nM.

`CC(=O)Nc1nc(C)c(-c2csc(C(=O)Nc3nnn[nH]3)n2)s1`: the IC50 in [1] (read-out: IC50) was 13 nM. In the case of `O=C(Nc1cc(-c2cnc3[nH]ncc3c2)cc2[nH]ncc12)c1cccc(CN2CCS(=O)(=O)CC2)n1`, the pIC50 result in [1] was “>= 5”. In data set [7], this compound had an IC50 not above 10000 nM. On to `Cc1nc(C(=O)Nc2cc(-c3ccnc4[nH]ccc34)cc3[nH]ncc23)cs1`, for which the pIC50 entry in data set [1] is reported as “>= 5”. Moreover, in data set [7], the IC50 is not above 1000 nM. For the compound `CC[C@H](Nc1ncnc2[nH]cnc12)c1nc2cccc(F)c2c(=O)n1-c1ccccc1` [IDELALISIB], the results for the MTD with Homo sapiens [14] and in the data set listed under Homo sapiens [15] were 200 mg and 400 mg, respectively. Besides, the Activity in the data set filed under Homo sapiens [16] is given as 56%. Consider `CC(=O)Nc1ccc(C(=O)NC2=Nc3cc(N4CCOCC4)ccc3C3=NCCN23)cn1`, for which the IC50 in [1] (read-out: IC50) is less than 100 nM. With `CC(C)N1CCN(Cc2cnc(-c3cc(-c4cccc5[nH]ccc45)cc4[nH]ncc34)o2)CC1` [NEMIRALISIB], the IC50 in [1] (read-out: pIC50 (converted)) was less than 100 nM.
